According to patent publication US20240270715A1, “INHIBITORS OF TRANSGLUTAMINASES” (ZEDIRA GMBH, priority 2021, published 2024):

Legend:
[1] = target: T1, recombinant human transglutaminase 2 (Homo sapiens, UniProt P21980); assay: Transglutaminase assay: incorporation of dansylcadaverine into dimethylcasein (DCC-assay); format: biochemical; conditions: recombinant human TG2 10 nM, dansylcadaverine/dimethylcasein; read-out: IC50 TG2
T1 sequence (P21980 1-687): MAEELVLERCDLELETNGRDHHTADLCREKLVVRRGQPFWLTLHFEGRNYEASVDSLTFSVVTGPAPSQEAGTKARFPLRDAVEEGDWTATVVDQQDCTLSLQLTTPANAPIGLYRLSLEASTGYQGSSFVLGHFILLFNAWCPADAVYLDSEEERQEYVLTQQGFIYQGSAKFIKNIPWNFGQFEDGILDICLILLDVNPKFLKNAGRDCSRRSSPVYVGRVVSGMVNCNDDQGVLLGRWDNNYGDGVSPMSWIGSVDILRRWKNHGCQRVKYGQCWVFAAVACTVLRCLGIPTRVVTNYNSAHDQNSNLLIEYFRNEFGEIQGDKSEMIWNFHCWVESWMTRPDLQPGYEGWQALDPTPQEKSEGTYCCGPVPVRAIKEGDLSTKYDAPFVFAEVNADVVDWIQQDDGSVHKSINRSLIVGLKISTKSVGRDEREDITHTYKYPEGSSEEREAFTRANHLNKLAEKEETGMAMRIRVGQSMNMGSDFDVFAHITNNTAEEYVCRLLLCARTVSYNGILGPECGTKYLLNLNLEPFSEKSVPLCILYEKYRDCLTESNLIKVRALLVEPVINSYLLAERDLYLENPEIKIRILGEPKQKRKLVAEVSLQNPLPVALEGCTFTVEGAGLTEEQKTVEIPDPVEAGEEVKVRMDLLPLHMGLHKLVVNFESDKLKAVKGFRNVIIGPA
Outline: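 Recombinant human TG2 (10 nM final) incorporates dansylcadaverine (16.7 μM) into N,N-dimethylcasein (4 μM) in Tris-HCl buffer, pH 8.0, with 10 mM CaCl2 and 10 mM glutathione. Fluorescence (λex 330, λem 500 nm) followed 30 min. The slope between 20–30 min gives activity versus DMSO control, and IC50 comes from the concentration–activity plot.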

[2] = Log D by shake flask method (octanol / PBS pH 7.4, HPLC); format: physicochemical; conditions: octanol / PBS pH 7.4, shake flask; read-out: logD
Outline: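 Shake-flask partitioning of compound between octanol and PBS at pH 7.4, with phase concentrations quantified by HPLC. The value reported is Log D.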

[3] = Caco-2 permeability assay (CacoReady kit); format: in vitro ADME; conditions: human
Outline: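 Read-out is the permeability coefficient Papp, obtained from transport across a Caco-2 barrier prepared from a ready-to-use kit following the manufacturer's instructions.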

| SMILES | IC50 [1] | logD [2] | Papp [3] |
| --- | --- | --- | --- |
| CCNC(=O)C(=O)CC[C@H](NC(=O)c1nccn1C)C(=O)Nc1cccn(CC(=O)NC23CC4CC(CC(CC)(C4)C2)C3)c1=O [Compound I-16, (S)-N1-ethyl-N6-(1-(2-(3-ethyladamantane-1-amino)-2-oxoethyl)-2-oxo-1,2-dihydropyridin-3-yl)-5-(1-methyl-1H-imidazole-2-carboxamido)-2-oxohexanediamide] | 600 to 3500 nM | 1 to 3 | < 1 ×10⁻⁶ cm/s |
| CCNC(=O)C(=O)CC[C@H](NC(=O)c1cc2ccccc2o1)C(=O)Nc1cccn(CC(=O)NC2C3CC4CC(C3)CC2C4)c1=O (stereo partly drawn) [Compound I-30, (S)-2-(benzofuran-2-carboxamido)-N6-ethyl-N1-(1-(2-(2-adamantylamino)-2-oxoethyl)-2-oxo-1,2-dihydropyridin-3-yl)-5-oxohexanediamide] | < 150 nM | 3 to 5 | 1 to 10 ×10⁻⁶ cm/s |
| CCNC(=O)C(=O)CC[C@H](NC(=O)c1cncn1C)C(=O)Nc1cccn(CC(=O)NC23CC4CC(C)(CC(C)(C4)C2)C3)c1=O [Compound I-4, (S)-N1-ethyl-N6-(1-(2-(3,5-dimethyladamantane-1-amino)-2-oxoethyl)-2-oxo-1,2-dihydropyridin-3-yl)-5-(1-methyl-1H-imidazole-5-carboxamido)-2-oxohexanediamide] | < 150 nM | 1 to 3 | < 1 ×10⁻⁶ cm/s |
| CCNC(=O)C(=O)CC[C@H](NC(=O)c1cncn1C)C(=O)Nc1cccn(CC(=O)NC23CC4CC(CC(F)(C4)C2)C3)c1=O [Compound I-8, (S)-N1-ethyl-N6-(1-(2-(3-fluoroadamantane-1-amino)-2-oxoethyl)-2-oxo-1,2-dihydropyridin-3-yl)-5-(1-methyl-1H-imidazole-5-carboxamido)-2-oxohexanediamide] | 150 to 600 nM | < 1 | < 1 ×10⁻⁶ cm/s |
| CCNC(=O)C(=O)CC[C@H](NC(=O)[C@H]1COCCN1)C(=O)Nc1cccn(CC(=O)NC2C3CC4CC2CC(C)(C4)C3)c1=O (stereo partly drawn) [Compound I-62, (S)-N1-ethyl-N6-(1-(2-(5-methyladamantane-2-amino)-2-oxoethyl)-2-oxo-1,2-dihydropyridin-3-yl)-5-((R)-morpholine-3-carboxamido)-2-oxohexanediamide] | 150 to 600 nM | 1 to 3 | < 1 ×10⁻⁶ cm/s |
| CCNC(=O)C(=O)CC[C@H](NC(=O)c1cn(C2CCC2)cn1)C(=O)Nc1cccn(CC(=O)NC23CC4CC(CC(CC)(C4)C2)C3)c1=O [Compound I-20, (S)-2-(1-cyclobutyl-1H-imidazole-4-carboxamido)-N6-ethyl-N1-(1-(2-(3-ethyladamantane-1-amino)-2-oxoethyl)-2-oxo-1,2-dihydropyridin-3-yl)-5-oxohexanediamide] | 600 to 3500 nM | 1 to 3 | < 1 ×10⁻⁶ cm/s |
| CCNC(=O)C(=O)CC[C@H](NC(=O)c1cncn1C)C(=O)Nc1cccn(CC(=O)NC23CC4CC(C2)C(F)(F)C(C4)C3)c1=O [Compound I-12, (S)-N1-ethyl-N6-(1-(2-(4,4-difluoroadamantane-1-amino)-2-oxoethyl)-2-oxo-1,2-dihydropyridin-3-yl)-5-(1-methyl-1H-imidazole-5-carboxamido)-2-oxohexanediamide] | 150 to 600 nM | < 1 | < 1 ×10⁻⁶ cm/s |
| CCNC(=O)C(=O)CC[C@H](NC(=O)c1cc(Br)c(Br)s1)C(=O)Nc1cccn(CC(=O)NC2C3CC4CC(C3)CC2C4)c1=O (stereo partly drawn) [Compound I-53, (S)-2-(4,5-dibromothiophene-2-carboxamido)-N6-ethyl-N1-(1-(2-(2-adamantylamino)-2-oxoethyl)-2-oxo-1,2-dihydropyridin-3-yl)-5-oxohexanediamide] | < 150 nM | 3 to 5 | 1 to 10 ×10⁻⁶ cm/s |
| CCNC(=O)C(=O)CC[C@H](NC(=O)c1sc(C(F)(F)F)nc1Br)C(=O)Nc1cccn(CC(=O)NC2C3CC4CC(C3)CC2C4)c1=O (stereo partly drawn) [Compound I-41, (S)-2-(4-bromo-2-(trifluoromethyl)thiazole-5-carboxamido)-N6-ethyl-N1-(1-(2-(2-adamantylamino)-2-oxoethyl)-2-oxo-1,2-dihydropyridin-3-yl)-5-oxohexanediamide] | < 150 nM | 1 to 3 | 1 to 10 ×10⁻⁶ cm/s |

Other lines, results leading:

| IC50 [1] | logD [2] | Papp [3] | SMILES |
| --- | --- | --- | --- |
| 600 to 3500 nM | 3 to 5 | 1 to 10 ×10⁻⁶ cm/s | CCNC(=O)C(=O)CC[C@H](NC(=O)c1c[nH]cc1C(C)(C)C)C(=O)Nc1cccn(CCC23CC4CC(CC(C4)C2)C3)c1=O [Compound I-85] |
| 150 to 600 nM | 1 to 3 | < 1 ×10⁻⁶ cm/s | CCNC(=O)C(=O)CC[C@H](NC(=O)c1ccnn1C)C(=O)Nc1cccn(CC23CC4CC(CC(C4)C2)C3)c1=O [Compound I-81, (S)-N1-(1-(1-adamantylmethyl)-2-oxo-1,2-dihydropyridin-3-yl)-N6-ethyl-2-(1-methyl-1H-pyrazole-5-carboxamido)-5-oxohexanediamide] |
| 150 to 600 nM | < 1 | < 1 ×10⁻⁶ cm/s | CCNC(=O)C(=O)CC[C@H](NC(=O)c1cn[nH]n1)C(=O)Nc1cccn(CC(=O)NC2CC3CCC2CC3)c1=O (stereo partly drawn) [Compound I-74, (2S)-N1-(1-(2-(bicyclo[2.2.2]octan-2-ylamino)-2-oxoethyl)-2-oxo-1,2-dihydropyridin-3-yl)-N6-ethyl-5-oxo-2-(2H-1,2,3-triazole-4-carboxamido)hexanediamide] |
| 150 to 600 nM | < 1 | < 1 ×10⁻⁶ cm/s | CCNC(=O)C(=O)CC[C@H](NC(=O)c1ccnnc1)C(=O)Nc1cccn(CC(=O)NC2C3CCC2CC3)c1=O (stereo partly drawn) [Compound I-72, (S)-N1-(1-(2-(bicyclo[2.2.1]heptan-7-ylamino)-2-oxoethyl)-2-oxo-1,2-dihydropyridin-3-yl)-N6-ethyl-5-oxo-2-(pyridazine-4-carboxamido)hexanediamide] |
| 600 to 3500 nM | < 1 | < 1 ×10⁻⁶ cm/s | CCNC(=O)C(=O)CC[C@H](NC(=O)c1nccc2cnccc12)C(=O)Nc1cccn(CC(=O)NC23CCC(C2)C3)c1=O [Compound I-107, (S)-N1-(1-(2-(bicyclo[2.1.1]hexan-1-ylamino)-2-oxoethyl)-2-oxo-1,2-dihydropyridin-3-yl)-N6-ethyl-2-(2,6-naphthyridine-1-carboxamido)-5-oxohexanediamide] |
| 150 to 600 nM | < 1 | < 1 ×10⁻⁶ cm/s | CCNC(=O)C(=O)CC[C@H](NC(=O)c1snnc1C=O)C(=O)Nc1cccn(CC(=O)NC2C3CC4CC(C3)CC2C4)c1=O (stereo partly drawn) [Compound I-120, (S)-N1-ethyl-5-(4-formyl-1,2,3-thiadiazole-5-carboxamido)-N6-(1-(2-(2-adamantylamino)-2-oxoethyl)-2-oxo-1,2-dihydropyridin-3-yl)-2-oxohexanediamide] |
| 600 to 3500 nM | < 1 | < 1 ×10⁻⁶ cm/s | CCNC(=O)C(=O)CC[C@H](NC(=O)c1cc2ccccc2nn1)C(=O)Nc1cccn(CC(=O)NC23CC(C2)C3)c1=O [Compound I-100, (S)-N1-(1-(2-(bicyclo[1.1.1]pentan-1-ylamino)-2-oxoethyl)-2-oxo-1,2-dihydropyridin-3-yl)-2-(cinnoline-3-carboxamido)-N6-ethyl-5-oxohexanediamide] |
| 150 to 600 nM | 1 to 3 | < 1 ×10⁻⁶ cm/s | CCNC(=O)C(=O)CC[C@H](NC(=O)c1cnn(C)c1)C(=O)Nc1cccn(CC(=O)NC23CC4CC5C2C[C@@H]2C[C@H]5C(C4)[C@H]3C2)c1=O [Compound I-79, (S)-N1-ethyl-N6-(1-(2-(diamantane-1-amino)-2-oxoethyl)-2-oxo-1,2-dihydropyridin-3-yl)-5-(1-methyl-1H-pyrazole-4-carboxamido)-2-oxohexanediamide] |
